Laboratory results as given in publication PMC6099921, “Microwave Optimized Synthesis of N-(adamantan-1-yl)-4-[(adamantan-1-yl)-sulfamoyl]benzamide and Its Derivatives for Anti-Dengue Virus Activity” (Molecules : A Journal of Synthetic Chemistry and Natural …, 2018).
Read-outs that look alike come from different tables or passages of the source.

Assays:
[1] = Celltiter-Glo Luminescent cell viability assay (cytotoxicity); type: cell-based; settings: human
Description: (§1) The antiviral activity of the test compounds (1, 3, 6, and 7) was examined in the Cell-based Flavivirus Immuno-assay (CFI assay). The CFI assay is based on a quantitative immunodetection of the DENV envelope protein production in A549 cells. Infection of the A549 cells by the DENV2 was allowed to occur in the presence of each test compound, after which virus load was measured by quantifying the amount of envelope protein that is produced using enzyme linked immunosorbent assay (ELISA). To ensure that the inhibition of the envelope production was not due to cell death, the cytotoxicity of each test compound was assessed via the cell viability assay.
(§2) The cytotoxicities of the test compounds were measured by a Celltiter-Glo Luminescent cell viability assay, according to the manufacturer’s protocol (catalog no. G7570; Promega, Madison, WI, USA). The A549 cell preparation and compound addition were performed, as described above under the “CFI assay”. After 48 h of incubation, the luminescent signals for cells treated with the test compounds were compared to those for cells treated with dimethyl sulfoxide (DMSO) to determine the CC50. […] All of the experiments were conducted in triplicate.

DENV2 = assay: Cell-based Flavivirus Immunodetection (CFI) assay, DENV envelope protein production in A549 cells; parameters: species or system dengue virus serotype 2; settings: ± standard deviation, at least three independent experiments
Description: as §1
A549 cells (catalog no. CCL-185; ATCC, Manassas, VA, USA) were maintained in Ham’s F-12 medium with 10% fetal bovine serum (FBS) and 1% penicillin-streptomycin at 37 °C in 5% CO2. The DENV2 used in this study was prepared by inoculating monolayers of C6/36 cells grown in RPMI 1640 medium with 5% FBS and 1% penicillin-streptomycin. After incubation at 28 °C for four to five days, the cell culture supernatant was collected after clarification of cell debris and was stored at −80 °C until used.
A549 cells were trypsinised and diluted to a concentration of 2 × 10^5 cells/mL in culture medium containing 2% FBS. A total of 100 μL of the cell suspension (2 × 10^4 cells) was dispensed into each well of a 96-well tissue culture plate. The cells were grown overnight in culture medium at 37 °C with 5% CO2 and were then infected with the DENV at a multiplicity of infection of 0.3 in the presence of different concentrations of the test compounds for 1 h at 37 °C with 5% CO2. The virus inoculum was removed and then replaced with fresh medium containing the test compounds and the cells were incubated at 37 °C with 5% CO2 for 48 h. The cells were washed once with phosphate-buffered saline (PBS) and fixed with cold methanol for 10 min. After the fixed cells were washed twice with PBS, they were blocked with PBS containing 1% FBS and 0.05% Tween 20 for 1 h at room temperature. A primary antibody (antibody 4G2) solution was then added, and the mixture was incubated for 3 h. The cells were washed three times with PBS, followed by incubation for 1 h with horseradish peroxidase-conjugated anti-mouse immunoglobulin G. After the cells were washed three times with PBS, 3,3′,5,5′-tetramethylbenzidine substrate solution was added to each well, and the reaction was stopped by adding 0.5 M sulfuric acid. The absorbencies of the solutions were measured with a Tecan Safire II plate reader (Tecan Group Ltd., Männedorf, Switzerland) at 450 nm for viral antigen quantification. Dose-response curves were plotted from the mean absorbance versus the log of the concentration of the test compound. The IC50, that is, the concentration of the test compound that inhibited the level of viral envelope protein production by 50%, was calculated by nonlinear regression analysis. All of the experiments were conducted in triplicate.

DENV [2] = tested on: DENV; parameters: method as in ref 9 (Lin and Chen, 2016); settings: small scale clinical study; ref 9 (Lin and Chen, 2016); cited from earlier work
DENV [3] = tested on: DENV; parameters: method as in ref 8 (Koff et al., 1980); settings: all four serotypes, ref 8 (Koff et al., 1980); cited from earlier work
A549 cells = assay: Celltiter-Glo Luminescent cell viability assay (cytotoxicity); type: cell-based; settings: A549 cells, 48 h, maximum concentration tested 100 µM
Description: as §1, §2

DENV2 NS2B/NS3 protease = tested on: DENV2 NS2B/NS3 protease; parameters: method as in ref 6 (Timiri et al., 2015); settings: in vitro; ref 6 (Timiri et al., 2015); cited from earlier work
[4] = Dengue virus, DENV2, A549, 48 h, CFI assay, A549 cells infected with DENV2, MOI 0.3, 48 h, read-out: DENV2 IC50
[5] = A549 cells, 48 h, maximum concentration tested 100 µM, read-out: CC50

Row | SMILES | IC50 (DENV2; [4]) | CC50 (A549 cells) | CC50 at 48 h [1, 5] | IC50 (DENV2 NS2B/NS3 protease) | further results
1 | NC12CC3CC(CC(C3)C1)C2 [Compound 1, amantadine, reference compound] | > 100 µM | – | – | – | CC50 at 48 h ([1]; CC50): > 100 µM; DENV2 IC50 (DENV2; CFI assay, A549 cells infected with DENV2, MOI 0.3, 48 h): did not show significant DENV2 activity; treatment effectiveness in DENV infected patients (DENV [2]): effective treatment option; anti-DENV activity in vitro (DENV [3]): anti-DENV activity on all four serotypes
2 | O=C(NC12CC3CC(CC(C3)C1)C2)c1ccc(S(=O)(=O)NC23CC4CC(CC(C4)C2)C3)cc1 [Compound 3, N-(adamantan-1-yl)-4-[(adamantan-1-yl)sulfamoyl]benzamide] | – | > 100 µM | < 100 µM | – | IC50 (DENV2; CFI assay, A549 cells infected with DENV2, MOI 0.3, 48 h, read-out: DENV2 IC50): 22.4 ± 7.7 µM; IC50 (DENV2; Dengue virus, DENV2, A549, 48 h, read-out: DENV2 IC50, CFI assay, A549 cells infected with DENV2, MOI 0.3, 48 h): 22.2 µM
3 | O=C(NC12CC3CC(CC(C3)C1)C2)c1ccccc1 [Compound 6, N-(adamantan-1-yl)benzamide] | > 100 µM | – | > 100 µM | – | –
4 | NS(=O)(=O)c1ccc(C(=O)NC23CC4CC(CC(C4)C2)C3)cc1 [Compound 7, N-(adamantan-1-yl)-4-sulfamoylbenzamide] | 42.8 ± 8.6 µM | > 100 µM | < 100 µM | – | –
5 | CCc1ccc(NS(=O)(=O)c2ccc(N3C(=O)c4ccccc4C3=O)cc2)cc1 [SF1] | – | – | – | 48.2 µM | –
6 | O=C1c2ccccc2C(=O)N1c1ccc(S(=O)(=O)Nc2cccc3ccccc23)cc1 [SF2] | – | – | – | 122 µM | –
